Reference: US12466854B2, “Peptide useful for the transport of molecules through cell barriers” (UNIVERSITÉ GRENOBLE ALPES, priority 2022, dated 2025)

Test system: mice
Assay: body temperature of mice after intravenous injection of peptides (hypothermia as reporter for crossing the BBB)
Format: in vivo
Details: 2.5 mmol/kg intravenously; for hypothermia (variation in body temperature): monitored over 90 minutes
Procedure: Body temperature was monitored using Anipill® capsules previously implanted intraperitoneally.
The monitoring was carried out over 90 minutes.

| Substance | time following injection at which hypothermia was observed [min] | hypothermia (variation in body temperature) |
| --- | --- | --- |
| TAT-NT: reference cell penetration peptide TAT fused to neurotensin, GRKKRRQRRRPQRRPYIL (SEQ ID NO: 8), positive control [reference compound] | 30 | approximately 1 degree Celsius |
| TB peptide: cell penetrating peptide of amino acid sequence RQRIWFQNRRRSRKIKK (SEQ ID NO: 1) | – | no signs of hypothermia |
| TB-NT: TB peptide fused to neurotensin, sequence RQRIWFQNRRRSRKIKKRRPYIL (SEQ ID NO: 7) | 35 | approximately 3 degree Celsius |
